Measurements taken from patent publication US20200231562A1, “NOVEL MACROLIDE ANTIBIOTICS” (HELMHOLTZ-ZENTRUM FÜR INFEKTIONSFORSCHUNG GMBH, priority 2014, published 2020).
Values after ≈ are worked out from the molar mass of the structure shown.

Legend:
[1] = tested on: S. aureus N315 mutant Mt50DscA.4; assay: Susceptibility (MIC) of Disciformycin A-resistant mutant; type: cell-based; conditions: Staphylococcus aureus
[2] = tested on: S. aureus N315 mutant Mt50DscA.11; assay: as above; type: cell-based; conditions: Staphylococcus aureus
[3] = tested on: S. aureus N315 mutant Mt50DscA.3; assay: as above; type: cell-based; conditions: Staphylococcus aureus
[4] = tested on: S. aureus N315 mutant Mt50DscA.10; assay: as above; type: cell-based; conditions: Staphylococcus aureus
[5] = tested on: S. aureus N315 Mt50DscA.9; assay: as above; type: cell-based; conditions: Staphylococcus aureus
[6] = tested on: S. aureus N315 mutant Mt50DscA.6; assay: as above; type: cell-based; conditions: Staphylococcus aureus
[7] = tested on: S. aureus N315 wildtype (WT); assay: Susceptibility (MIC) of S. aureus N315 wildtype; type: cell-based; conditions: Staphylococcus aureus
[8] = tested on: S. aureus N315 mutant Mt50DscA.5; assay: Susceptibility (MIC) of Disciformycin A-resistant mutant; type: cell-based; conditions: Staphylococcus aureus
[9] = tested on: S. aureus N315 mutant Mt50DscA.2; assay: as above; type: cell-based; conditions: Staphylococcus aureus
[10] = tested on: S. aureus N315 mutant Mt50DscA.1; assay: as above; type: cell-based; conditions: Staphylococcus aureus
[11] = tested on: S. aureus N315 mutant Mt50DscA.8; assay: as above; type: cell-based; conditions: Staphylococcus aureus
HeLa cells = assay: Cytotoxic effect (methylene blue staining); type: cell-based, human; conditions: at a concentration of 100 μM
Protocol: The human monocytic cell line Mono Mac 6 was cultured in RPMI 1640 medium supplemented with FCS (10%, v/v), penicillin (100 U/ml), streptomycin (100 μg/ml), insulin (10 μg/ml), oxaloacetic acid (1 mM), sodium pyruvate (1 mM), and 1× non-essential amino acids at 37° C. and 5% CO2. A-549 cells (DSM ACC-107) were cultured in DMEM high glucose (4.5 g/l) medium supplemented with FCS (10% v/v), penicillin (100 U/ml) and streptomycin (100 μg/ml) at 37° C. in a 5% CO2 incubator. K-562 (DSM ACC 10) and HeLa cells (DSM ACC 57) were grown in RPMI 1640, whereas cells of HUVEC (ATCC CRL-1730) were cultured in DMEM medium. The respective media were supplemented with ultraglutamine 1 (10 ml/l), gentamicin sulfate (500 μl/l), and FCS (10% v/v).
The test substances were dissolved in methanol before being diluted in DMEM. The adherent cells were harvested at the logarithmic growth phase after soft trypsinization using 0.25% trypsin in PBS containing 0.02% EDTA. For each experiment, approximately 10,000 cells were seeded with 0.1 ml culture medium per well of the 96-well microplates. […] In case of K-562 cells, the number of viable cells in every well was determined using the CellTiter-Blue1 assay. […] The optical densities were measured at 660 nm in a SUNRISE microplate reader (TECAN).

[12] = tested on: primary monocytes from human peripheral blood; assay: MTT assay, cytotoxic activity; type: cell-based; conditions: incubation 24 or 48 hours
Protocol: The cytotoxic activity of gulmirecin A (3) and gulmirecin B (4) against human cells was evaluated in the well-established MTT assay using primary monocytes from human peripheral blood as well as transformed lung epithelial cell A-549 cell and leukemic Mono Mac 6 cells. Furthermore, 3 and 4 were tested against K-562, HUVEC, and HeLa cells.
Human primary monocytes were isolated from leukocyte concentrates, obtained from the Institute of Transfusion Medicine at the University Hospital Jena, Germany. The concentrates were prepared from the blood of healthy adult human donors who had not taken any anti-inflammatory medication for the 10 days prior to blood donation, as described. In brief, freshly withdrawn peripheral blood was pretreated with citrate-phosphate-dextrose solution as anticoagulant and processed with the 2C+ protocol of the Atreus Whole Blood Processing System (Terum BCT). Peripheral blood mononuclear cells (PBMC) were isolated by dextran sedimentation and centrifugation on LSM 1077 lymphocyte separation medium (PAA Laboratories). For isolation of monocytes, the PBMC were washed twice with ice-cold phosphate buffered saline (PBS) and plated (density 2×10^7 cells/ml) in culture flasks (Greiner Bio-One) containing PBMC medium (RPMI 1640 medium supplemented with 100 U/ml penicillin, 100 μg/ml streptomycin and 2 mM L-glutamine) for 1.5 hours at 37° C., 5% CO2. Non-adherent cells were removed; adherent monocytes were scraped, washed with ice-cold PBS and resuspended in ice-cold PBS with a purity of >85%, defined by forward- and side-light scatter properties and detection of the CD14 surface molecule by flow cytometry (BD FACS Calibur). […]
Cells (3×10^5 Mono Mac 6, 1×10^5 A-549 cells, or 2×10^6 monocytes per well) were seeded in a 96-well plate in the respective medium (100 μl/well). […] Absorbance of each well was measured at 570 nm in a Multiskan™ microplate spectrophotometer (Thermo Scientific).

Row | SMILES | MIC [1] [µg/mL] | MIC [2] [µg/mL] | MIC [3] [µg/mL] | MIC [4] [µg/mL] | MIC [5] [µg/mL] | MIC [6] [µg/mL] | MIC [7] [µg/mL] | MIC [8] [µg/mL] | MIC [9] [µg/mL] | MIC [10] [µg/mL] | MIC [11] [µg/mL] | inhibition of proliferation (HeLa cells) | cell viability / cytotoxicity (MTT) [12]
1 | C/C=C(/C)[C@H]1C/C=C(\C)[C@@H](O[C@H]2O[C@H](CO)[C@@H](O)[C@@H]2O)[C@H](OC(=O)CC(C)C)C(=O)C/C=C(/C)C(=O)O1 [Compound 1, disciformycin A] | > 64 | > 64 | > 64 | > 64 | > 64 | > 64 | 4 (≈ 7.62 µM) | 64 (≈ 122 µM) | > 64 | > 64 | > 64 |  | 
2 | C/C=C(/C)[C@H]1C/C=C(\C)[C@@H](O[C@H]2O[C@H](CO)[C@@H](O)[C@@H]2O)[C@H](OC(=O)CC(C)C)C(=O)C[C@@H](O)[C@H](C)C(=O)O1 [Compound 3, gulmirecin A] | > 64 | > 64 | > 64 | > 64 | > 64 | > 64 | 4 (≈ 7.37 µM) | 64 (≈ 118 µM) | > 64 | > 64 | > 64 | did not inhibit | no reduction in cell viability at the concentrations required for antibacterial activity
3 | C/C=C(/C)[C@H]1C/C=C(\C)[C@@H](O[C@H]2O[C@H](CO)[C@@H](O)[C@@H]2O)[C@H](O)C(=O)CC[C@H](C)C(=O)O1 [Compound 4, gulmirecin B] | > 64 | > 64 | > 64 | > 64 | > 64 | > 64 | 32 (≈ 72.3 µM) | > 64 | > 64 | > 64 | > 64 | did not inhibit | no reduction in cell viability at the concentrations required for antibacterial activity
